Measurements taken from patent publication US8906351B2, “2,2′-furoin derivatives and use thereof to light skin” (Merck Patent GmbH, priority 2010, dated 2014).

Columns and labels:
[1] = tested on: B16V mouse melanoma cells; assay: B16V mouse melanoma cell test, melanin content after alpha-MSH stimulation; format: cell-based; settings: DMSO blank = 100, DMSO + alpha-MSH = 235
Procedure: B16V mouse melanoma cells (manufacturer: DSMZ; Article No.: ACC370) are transferred into RPMI medium (Invitrogen, Article No.: 31870), to which 10% of FBS (foetal bovine serum; Invitrogen, Article No.: 10499044), 2 mM L-glutamine (Invitrogen, Article No: 25030) and 1 mM sodium pyruvate (Invitrogen, Article No.: 11360) had additionally been added, and incubated at 37° C. and 5% CO2 for 72 h. The medium is separated off, and the cells are washed once with 10 ml of DPBS (Dulbecco's phosphate-buffered salines; Invitrogen, Article No.: 14190), and the medium is subsequently removed by suction. 1 ml of HyQtase cell detachment solution (Hyclone, Article No.: SV30030.01) is added to the cells. The bottle is swirled a number of times, and the HyQtase cell detachment solution is subsequently removed by suction. The cells are then incubated in the incubator at 37° C. and 5% CO2 for 5 min. The cells are taken up in the modified RPMI medium (see above), and the cell count is determined. To this end, the cells are stained with Trypan Blue and counted in a Neubauer counting chamber. The cells are subsequently sown out again in the modified RPMI medium (see above) in a defined cell count of 80,000 cells per well (6-well clear plate, TCT, PS (Nunc)).
The cells are incubated at 37° C. and 5% CO2 for 24 h, the medium is then removed. 1980 μl of the substance dilution are subsequently added. […]
After the final incubation period, the medium is removed by suction, and the cells are washed with 1000 μl of DPBS (Invitrogen, Article No.: 14190). […] The cell count is subsequently determined. To this end, the cells are stained with Trypan Blue and counted in a Neubauer counting chamber. […] Four times 200 μl per cup (as quadruple determination) are subsequently pipetted into a 96-well plate (VWR, Article No.: 4100636981), and the absorption at a wavelength of 405 nm is determined (Safire, Tecan). The content of melanin can be determined in this way by means of a calibration line.

[2] = tested on: normal human epidermal melanocytes (NHEM); assay: Melanogenesis assay with human primary cells; format: cell-based; settings: 10 days incubation, DMSO control = 100, concentration not given
Procedure: An ampoule of normal human epidermal melanocytes (NHEM, Promocell) is thawed and divided into further bottles depending on the number of their duplicates. After 2 to 3 weeks, between 750,000 and one million cells are transferred into T25 bottles with 5 ml of full medium. After 24 hours, the medium is removed and replaced by corresponding substance dilutions or controls. The overall duration of the incubation of the various test substances on the cells is 10 days. During these 10 days, the substance dilutions or controls are replaced every 2-3 days. After 10 days, the melanocytes are harvested. 500 μl of trypsin/EDTA is added to the cells and immediately removed again by suction. The cells are subsequently taken up in medium, counted and centrifuged off. The supernatant is removed, the pellet is washed with DPBS and centrifuged again. A photo of this pellet is taken. The pellet is then taken up in 1 ml of NaOH (1 M) and incubated in a shaker at 80° C. for one hour. The solution, cooled to room temperature, is pipetted into a 96-well plate (4×200 μl), and the absorption at 405 nm is measured. The values measured are subsequently plotted in percent against the control.

Structure (SMILES) | Relative melanin content in % ([1]; 0.05 mM + alpha-MSH (10^-8 M)) [%] | Relative melanin content in % ([1]; 0.1 mM + alpha-MSH (10^-8 M)) [%] | Relative melanin content in % [2] [%] | Relative melanin content in % ([1]; 1 mM + alpha-MSH (10^-8 M)) [%]
O=C(c1ccco1)C(O)c1ccco1 (stereo not shown) [2,2′-Furoin, 2,2′-furoin] | 88.0 | 63.1 | 72.9 | 
O=c1cc(CO)occ1O [Kojic acid, reference compound] |  |  |  | 96
